test system: HBV; assay: Anti-HBV activity in vitro: quantification of extracellular HBV DNA by direct qPCR in HepAD38 cells; format: cell-based; details: Hepatitis B virus, doxycycline-free medium, 96 hours at 37°C, 8-point dose-response curve, read-out: HBV inh EC50
Excerpt: HepAD38 cell line (Ladner et al., Antimicrob Agents Chemother, 1997, 41, 1715-20) was used for HBV inhibition assays. HepAD38 is a subclone, derived from hepatoblastoma cell line HepG2 (ATCC® Number: HB-8065™), that expresses HBV genome under the transcriptional control of a tetracycline-responsive promoter in a TET-OFF system: addition of doxycycline, an antibiotic belonging to the class of tetracycline, suppresses HBV replication, while its removal switches on the process allowing HBV viral particles release in the cell supernatant. HepAD38 cell line is maintained in DMEM/F12, supplemented with 10% of fetal bovine serum, 1% of glutamine, 1% of penicillin/streptomycin, 0.4 mg/ml G418 and 0,3 ug/ml tetracycline. For the HBV inhibition assay, doxycycline-free medium is used in order to allow virion production.
HBV inhibition activity in vitro was performed in 96 multiwell plates. During the initial (primary) screening, compounds were first tested in triplicates at concentrations of 0.02 µM, 0.1µM, 0.5µM and 1µM. For selected compounds, an 8-point dose-response curve was obtained using 1:2 serial dilutions (starting from 0.01µM, 0.1µM, 0.4µM or 5 µM, depending on the degree of inhibition observed during the primary screening). From the dose-response curves, half maximal effective concentration (EC50) could be calculated (see also below).
In more detail, compounds - typically dissolved in DMSO stock solutions - were diluted to 2x the final desired concentration in 100 µl of the above medium (without doxycycline) and plated in three replicates in the 96-well plates.
Simultaneously, HepAD38 cells - extensively pre-washed in doxycycline-free medium in order to induce HBV production - were suspended at 2^∗10^4 cells in 100 µl of doxycycline-free medium and added to each well of the plate, to yield a final assay volume of 200 µl DMSO - used for stock solutions and compounds dilutions - which was always present in the assays at a final concentration of 0.5%.
Plates were then incubated 96 hours at 37°C and then subjected to cell viability assays and extracellular HBV quantification, in order to evaluate both the cytotoxic potential and the antiviral activity of compounds. Cytotoxicity was assessed by a commercial fluorescence assay that measures the metabolic activity of cells, directly related to cell viability (Cell Titer Blue, Promega). Anti-HBV activity was evaluated by quantification of extracellular HBV DNA with direct qPCR. In particular, supernatant was collected and centrifuged for cell debris clarification, viral DNA was extracted from virions by addition of lysis buffer (1 mM 1,4-dithiothreitol, 0.2% sodium dodecyl sulphate) and incubated at 95°C for 10 min. Samples were then diluted 1:40 and real time PCR amplification was performed with SYBR green assay (Power SYBR™ Green PCR Master Mix-Thermo Fisher Scientific) and specific HBV primer (HBV-DF:5'-[…]-3' (SEQ ID No. 1), HBV-DR:5'-[…]-3' (SEQ ID No. 2)).
Antiviral activity data for each compound are reported as EC50 value (see Table 1 legend). Excel and Graphpad Prism programs are typically used for data elaboration and EC50 calculation.

| Compound | EC50 |
| --- | --- |
| Cn1cc2c(c1C(=O)Nc1ccc(F)c(C(F)F)c1)OC[C@]1(CCN(C(=O)C(=O)NC(C)(C)C(F)(F)F)C1)NS2(=O)=O [Example E24, (R)-N-(3-(difluoromethyl)-4-fluorophenyl)-7'-methyl-1-(2-oxo-2-((1,1,1-trifluoro-2-methylpropan-2-yl)amino)acetyl)-2'H,4'H,7'H-spiro[pyrrolidine-3,3'-pyrrolo[3,4-b][1,4,5]oxathiazepine]-6'-carboxamide 1',1'-dioxide] | < 500 nM |
| C[C@H](NC(=O)C(=O)N1CCC2(CC1)COc1c(cn(C)c1C(=O)Nc1ccc(F)c(C(F)F)c1)S(=O)(=O)N2)C(F)(F)F [Example E14, (S)-N-(3-(difluoromethyl)-4-fluorophenyl)-7'-methyl-1-(2-oxo-2-((1,1,1-trifluoropropan-2-yl)amino)acetyl)-2'H,4'H,7'H-spiro[piperidine-4,3'-pyrrolo[3,4-b][1,4,5]oxathiazepine]-6'-carboxamide 1',1'-dioxide] | < 500 nM |
| Cn1cc2c(c1C(=O)Nc1ccc(F)c(Cl)c1)OC[C@]1(CCN(C(=O)C(=O)NC(C)(C)C(F)(F)F)C1)NS2(=O)=O [Example E21, (R)-N-(3-chloro-4-fluorophenyl)-7'-methyl-1-(2-oxo-2-((1,1,1-trifluoro-2-methylpropan-2-yl)amino)acetyl)-2'H,4'H,7'H-spiro[pyrrolidine-3,3'-pyrrolo[3,4-b][1,4,5]oxathiazepine]-6'-carboxamide 1',1'-dioxide] | < 500 nM |
| C[C@@H](NC(=O)C(=O)N1CC[C@]2(COc3c(c(Cl)n(C)c3C(=O)Nc3ccc(F)c(C(F)F)c3)S(=O)(=O)N2)C1)C(F)(F)F [Example E34, (R)-8'-chloro-N-(3-(difluoromethyl)-4-fluorophenyl)-7'-methyl-1-(2-oxo-2-(((R)-1,1,1-trifluoropropan-2-yl)amino)acetyl)-2'H,4'H,7'H-spiro[pyrrolidine-3,3'-pyrrolo[3,4-b][1,4,5]oxathiazepine]-6'-carboxamide 1',1'-dioxide] | < 500 nM |
| C[C@@H](NC(=O)C(=O)N1CC[C@]2(COc3c(cn(C)c3C(=O)Nc3ccc(F)c(Cl)c3)S(=O)(=O)N2)C1)C(F)(F)F [Example E4, (R)-N-(3-chloro-4-fluorophenyl)-7'-methyl-1-(2-oxo-2-(((R)-1,1,1-trifluoropropan-2-yl)amino)acetyl)-2'H,4'H,7'H-spiro[pyrrolidine-3,3'-pyrrolo[3,4-b][1,4,5]oxathiazepine]-6'-carboxamide 1',1'-dioxide] | < 500 nM |
| C[C@@H](NC(=O)C(=O)N1CC[C@]2(COc3c(c(Cl)n(C)c3C(=O)Nc3ccc(F)c(Cl)c3)S(=O)(=O)N2)C1)C(F)(F)F (stereo in doubt) [Example E33, (R)-8'-chloro-N-(3-chloro-4-fluorophenyl)-7'-methyl-1-(2-oxo-2-(((R)-1,1,1-trifluoropropan-2-yl)amino)acetyl)-2'H,4'H,7'H-spiro[pyrrolidine-3,3'-pyrrolo[3,4-b][1,4,5]oxathiazepine]-6'-carboxamide 1',1'-dioxide] | < 500 nM |
| C[C@@H](NC(=O)C(=O)N1CC[C@@]2(COc3c(c(Cl)n(C)c3C(=O)Nc3ccc(F)c(C(F)F)c3)S(=O)(=O)N2)C1)C(F)(F)F [Example E29, (S)-8'-chloro-N-(3-(difluoromethyl)-4-fluorophenyl)-7'-methyl-1-(2-oxo-2-(((R)-1,1,1-trifluoropropan-2-yl)amino)acetyl)-2'H,4'H,7'H-spiro[pyrrolidine-3,3'-pyrrolo[3,4-b][1,4,5]oxathiazepine]-6'-carboxamide 1',1'-dioxide] | < 500 nM |
| C[C@@H](NC(=O)C(=O)N1CC[C@]2(COc3c(cn(C)c3C(=O)Nc3ccc(F)c(C(F)F)c3)S(=O)(=O)N2)C1)C(F)(F)F [Example E6, (R)-N-(3-(difluoromethyl)-4-fluorophenyl)-7'-methyl-1-(2-oxo-2-(((R)-1,1,1-trifluoropropan-2-yl)amino)acetyl)-2'H,4'H,7'H-spiro[pyrrolidine-3,3'-pyrrolo[3,4-b][1,4,5]oxathiazepine]-6'-carboxamide 1',1'-dioxide] | < 500 nM |
| C[C@@H](NC(=O)C(=O)N1CC2(COc3c(c(Cl)n(C)c3C(=O)Nc3ccc(F)c(C(F)F)c3)S(=O)(=O)N2)C1)C(F)(F)F [Example E32, (R)-8'-chloro-N-(3-(difluoromethyl)-4-fluorophenyl)-7'-methyl-1-(2-oxo-2-((1,1,1-trifluoropropan-2-yl)amino)acetyl)-2'H,4'H,7'H-spiro[azetidine-3,3'-pyrrolo[3,4-b][1,4,5]oxathiazepine]-6'-carboxamide 1',1'-dioxide] | < 500 nM |
| C[C@H](NC(=O)C(=O)N1CCC2(CC1)COc1c(cn(C)c1C(=O)Nc1ccc(F)c(Cl)c1)S(=O)(=O)N2)C(F)(F)F [Example E12, (S)-N-(3-chloro-4-fluorophenyl)-7'-methyl-1-(2-oxo-2-((1,1,1-trifluoropropan-2-yl)amino)acetyl)-2'H,4'H,7'H-spiro[piperidine-4,3'-pyrrolo[3,4-b][1,4,5]oxathiazepine]-6'-carboxamide 1',1'-dioxide] | < 500 nM |
| Cn1cc2c(c1C(=O)Nc1ccc(F)c(Cl)c1)OCC1(CN(C(=O)C(=O)N3CC(F)(F)C3)C1)NS2(=O)=O [Example E17, N-(3-chloro-4-fluorophenyl)-1-(2-(3,3-difluoroazetidin-1-yl)-2-oxoacetyl)-7'-methyl-2'H,4'H,7'H-spiro[azetidine-3,3'-pyrrolo[3,4-b][1,4,5]oxathiazepine]-6'-carboxamide 1',1'-dioxide] | < 500 nM |
| C[C@@H](NC(=O)C(=O)N1CCC2(CC1)COc1c(c(Cl)n(C)c1C(=O)Nc1ccc(F)c(Cl)c1)S(=O)(=O)N2)C(F)(F)F [Example E30, (R)-8'-chloro-N-(3-chloro-4-fluorophenyl)-7'-methyl-1-(2-oxo-2-((1,1,1-trifluoropropan-2-yl)amino)acetyl)-2'H,4'H,7'H-spiro[piperidine-4,3'-pyrrolo[3,4-b][1,4,5]oxathiazepine]-6'-carboxamide 1',1'-dioxide] | < 500 nM |
| Cn1cc2c(c1C(=O)Nc1ccc(F)c(Cl)c1)OC[C@]1(CCN(C(=O)C(=O)NCC(F)(F)F)C1)NS2(=O)=O [Example E20, (R)-N-(3-chloro-4-fluorophenyl)-7'-methyl-1-(2-oxo-2-((2,2,2-trifluoroethyl)amino)acetyl)-2'H,4'H,7'H-spiro[pyrrolidine-3,3'-pyrrolo[3,4-b][1,4,5]oxathiazepine]-6'-carboxamide 1',1'-dioxide] | < 500 nM |
| C[C@H](NC(=O)C(=O)N1CC2(COc3c(cn(C)c3C(=O)Nc3ccc(F)c(C(F)F)c3)S(=O)(=O)N2)C1)C(F)(F)F [Example E18, (S)-N-(3-(difluoromethyl)-4-fluorophenyl)-7'-methyl-1-(2-oxo-2-((1,1,1-trifluoropropan-2-yl)amino)acetyl)-2'H,4'H,7'H-spiro[azetidine-3,3'-pyrrolo[3,4-b][1,4,5]oxathiazepine]-6'-carboxamide 1',1'-dioxide] | < 500 nM |
| C[C@@H](NC(=O)C(=O)N1CCC2(CC1)COc1c(cn(C)c1C(=O)Nc1ccc(F)c(Cl)c1)S(=O)(=O)N2)C(F)(F)F [Example E7, (R)-N-(3-chloro-4-fluorophenyl)-7'-methyl-1-(2-oxo-2-((1,1,1-trifluoropropan-2-yl)amino)acetyl)-2'H,4'H,7'H-spiro[piperidine-4,3'-pyrrolo[3,4-b][1,4,5]oxathiazepine]-6'-carboxamide 1',1'-dioxide] | < 500 nM |
| Cn1cc2c(c1C(=O)Nc1ccc(F)c(C(F)F)c1)OCC1(CCN(C(=O)C(=O)NC(C)(C)C(F)(F)F)CC1)NS2(=O)=O [Example E15, N-(3-(difluoromethyl)-4-fluorophenyl)-7'-methyl-1-(2-oxo-2-((1,1,1-trifluoro-2-methylpropan-2-yl)amino)acetyl)-2'H,4'H,7'H-spiro[piperidine-4,3'-pyrrolo[3,4-b][1,4,5]oxathiazepine]-6'-carboxamide 1',1'-dioxide] | < 500 nM |

— patent EP3985010A1, “SPIROCYCLIC INHIBITORS OF HEPATITIS B VIRUS” (priority 2020, dated 2022)
